{"source": "patent US20060013801A1", "about": "“Prevention of and therapy for radiation toxicity of normal tissues using drugs which block il-1 activity” (priority 2002, published 2006)", "key": {"Rantes mRNA": {"tested_on": "Rantes mRNA", "test": "RNase protection assay, Rantes mRNA expression", "conditions": "60 Gy, 50 mg/kg Celebrex, vs 7.4±1.6 control, P<0.05, ratio to GAPDH or L32 mRNA"}, "[1]": {"tested_on": "MCa-35 tumor and overlaying skin", "test": "Histology of irradiated skin and MCa-35 tumor", "format": "in vivo, C3H/HeN mice", "from_the_text": "(§1) Isotransplantable murine MCa-35 mammary tumor cells was inoculated i.m. into right hind thighs of 6-7 week-old female C3H/HeN mice (NCI, Fredrick, Md.). […] Mice were sacrificed 20 days after radiation.\nTumors and the overlaying skin tissues were removed for histology and RNA preparation. Irradiated tissues (tumor and skin) were also collected for making paraffin blocks for immunohistochemical staining. Guidelines for the humane treatment of animals were followed as approved by the University of Rochester Committee on Animal Resources.\n(§2) Four experiment groups were used. […] Group 1 was radiation alone; mice in group 2 were given 50 mg/kg Celebrex 2 hours before radiation (2 hr pre-radiation); mice in group 3 and 4 were received the same amount of Celebrex at day 2 or day 7 post-radiation. […] All mice were sacrificed 20 day after radiation.\nImmunohistochemistry methods have previously been described in detail. Immediately following cryostat sectioning, tissue slices (normal muscle and tumor) were stained with CD31 antibody (PharMingen Calif.) for determination of total vasculature. The stained sections were imaged using an epi-fluorescence equipped microscope, digitized (3-CCD camera), background-corrected, and image-analyzed using Image Pro software (Media Cybernetics, Mass.) and a 450 MHz Pentium computer. Color images from individual microscope fields were automatically acquired and digitally combined to form four montages of the tumor cross-section (total area=15.5 mm2) using a motorized stage and controller. The image montages were processed to enhance the contrast between background and CD31 staining. From the enhanced images, locations of CD31-stained vessels were recorded. The quantitative vascular information was analyzed using custom Fortran programs to perform a “closest individual” analysis as previously described. Briefly, the distances from computer-superimposed sampling points to the nearest blood vessel were determined. […]"}, "[2]": {"tested_on": "radiation (60 Gy) induced skin damage in MCa-35 mammary tumor-bearing mice", "test": "Radiation induced skin damage by 5-scales Skin Scoring System", "format": "in vivo, C3H/HeN mice", "conditions": "for mice with severe skin damage (grades 4-5): 20 days after radiation", "protocol": "as §1, §2\nRadiation induce skin damage was assessed using 5-scales Skin Scoring System. 20 days after single 60 Gy radiation, mice from each treatment group were determined blindly for the degree of skin damage by three investigators. Grade 1: normal skin; grade 2: slight hair loss in irradiated area; grade 3: radish and swollen tissue; grad 4: small area erosion; grade 5: small ulceration. Grades 2-3 is referred as mild, and grades 4-5 is considered as severe skin damage."}, "MCP-1 mRNA": {"tested_on": "MCP-1 mRNA", "test": "RNase protection assay, MCP-1 mRNA expression", "conditions": "60 Gy"}, "MIP-2 mRNA": {"tested_on": "MIP-2 mRNA", "test": "RNase protection assay, MIP-2 mRNA expression"}, "[3]": {"tested_on": "C-C and C-X-C chemokine receptors mRNA", "test": "RNase protection assay, C-C and C-X-C chemokine receptor mRNA expression", "format": "in vivo, C3H/HeN mice", "protocol": "as §1, §2\nTotal RNA was isolated from tumors and skin overlying tumors, respectively, with 9-10 mice in each treatment group by pulverizing the frozen tissue, and dissolved in TRI Reagent (Molecular Research Center, Ohio) according to the manufacturer's specifications.\nDifferences were considered significant for p<0.05."}}, "note": "“Also recorded” adds a separate entry of the source."}
{"smiles": "Cc1ccc(-c2cc(C(F)(F)F)nn2-c2ccc(S(N)(=O)=O)cc2)cc1", "note": "[Celebrex]", "values": [{"measurement": "Rantes mRNA expression in irradiated skin tissues", "setting": "Rantes mRNA", "result": "2.3±1.1"}, {"measurement": "effect on MCa-35 tumor histology (blood vessels, necrosis)", "setting": "[1]; oral administration, compared with saline-treated controls", "result": "reduction of blood vessels"}, {"measurement": "inflammation and inflammatory cell infiltration in the dermis", "setting": "[1]; pre- (2 hr) or post-radiation (day 2 or day 7) treatment, compared with saline-treated controls", "result": "less inflammation and cellular component infiltration in the dermis; also recorded: less infiltration of inflammatory cells"}, {"measurement": "infiltration of inflammatory cells in tumor tissue", "setting": "[1]; tumor tissue, compared with saline controls", "result": "not obviously altered"}, {"measurement": "effect on radiation induced normal skin damage", "setting": "[2]; 50 mg/kg daily gavage, 15 doses in three weeks, single 60 Gy", "result": "significantly reduced; also recorded: less radiation-induced skin damage"}, {"measurement": "mice with severe skin damage (grades 4-5)", "setting": "[2]; 50 mg/kg gavage started 2 hr pre-radiation, 15 doses, single 60 Gy", "result": 17.6, "unit": "%"}, {"measurement": "mice with severe skin damage (grades 4-5)", "setting": "[2]; 50 mg/kg gavage started day 2 post-radiation, 15 doses, single 60 Gy", "result": 5.3, "unit": "%"}, {"measurement": "mice with severe skin damage (grades 4-5)", "setting": "[2]; 50 mg/kg gavage started day 7 post-radiation, 10 doses, single 60 Gy", "result": 11.1, "unit": "%"}, {"measurement": "treated mice that still developed moderate or severe skin damage after radiation", "setting": "[2]; 60 Gy, Celebrex-treated mice", "result": "15-30%"}, {"measurement": "MCP-1 mRNA expression in irradiated skin tissues", "setting": "MCP-1 mRNA; irradiated skin, 50 mg/kg Celebrex, vs 18.8±3.2 control, p<0.05, ratio to GAPDH or L32 mRNA", "result": "10.2±1.1"}, {"measurement": "reduction of MCP-1 mRNA expression in tumor tissues", "setting": "MCP-1 mRNA; tumor tissue", "result": "not in tumor tissues"}, {"measurement": "tumor skin with high MIP-2 mRNA expression", "setting": "MIP-2 mRNA; after Celebrex treatment, 37.5% of mice with radiation alone", "result": "14.3%-28.6%"}, {"measurement": "effect on tumor MIP-2 mRNA", "setting": "MIP-2 mRNA; tumor tissue, 60 Gy", "result": "did not significantly alter"}, {"measurement": "CXCR4 mRNA expression", "setting": "[3]; skin of Celebrex-treated mice with less radiation-induced skin damage", "result": "significantly reduced"}, {"measurement": "mRNA expression of both C-C and C-X-C chemokine receptors in tumor skin", "setting": "[3]; tumor skin, 60 Gy, not in tumor tissues", "result": "decrease mRNA expression"}]}
